Laboratory results taken from patent EP0978280A1, “2-[…]” (priority 1997, dated 1998).
Counter-ions that a name gives are not always drawn.

What follows are compounds tested against T1, Nicotinic acetylcholine receptor (Rattus norvegicus, UniProt P09483+P12390). Details: 10 nM of the test drug; 1 nM of ^3H-cytidine; rat whole brain membrane fraction; 4°C for 75 min; nonspecific binding with 10 µM (-)nicotine.
T1 construct: the rat was decapitated, and the whole brain was removed and homogenized; from tissue; host or cells: rat whole brain membrane fraction
Method: Nicotinic acetylcholine receptor binding assay
The membrane fraction was prepared in accordance with the protocol described in Brain Res., 100, 81-87 (1977). Thus, the rat was decapitated, and the whole brain was removed and homogenized with 15 volumes of cold 0.32 M aqueous sucrose solution using a Teflon homogenizer. The homogenate was centrifuged at 4°C and 1,000 x g for 10 mm. and the supernatant obtained was centrifuged at 4°C and 20,000 x g for 20 min. Then, ice-cold distilled water was added to the pellet, and the pellet was suspended using Hiscotron®. The suspension was centrifuged at 4°C and 8,000 x g for 20 min. and the supernatant and the buffy coat layer were recovered and centrifuged again at 4°C and 40,000 x g for 20 min. The pellet obtained was suspended in cold distilled water and stored at -80°C until used.
The receptor binding experiment was performed in accordance with the protocol described in J. Pharamcol. Exp. Ther., 270, 310-318 (1994). Thus, the rat whole brain membrane fraction (ca 200 µg) was incubated in BSS-Tris buffer [composition mM: NaCl 120, KCl 5, CaCl22, MgCl22, Tris-HCl 50 (pH=7.4, at 4°C)] containing 1 nM of ^3H-cytidine and 10 nM of the test drug at 4°C for 75 min. To stop the reaction, 4 ml of cold BSS-Tris buffer was added and the reaction mixture was immediately suction-filtered on GF/B glass fiber filter paper which had been pre-soaked in 0.5% polyethyleneimine. The filter paper was recovered, 4 ml of ACS-II (Amersham, TM) was added, and the ^3H radioactivity was determined with a scintillation counter. Based on the value (specific binding) obtained after subtraction of the ^3H-binding (nonspecific binding) amount in the presence of 10 µM (-)nicotine, the inhibition rate of ^3H-cytidine binding at the 10 nM concentration of each drug was calculated.

T1 sequence (P09483 31-630): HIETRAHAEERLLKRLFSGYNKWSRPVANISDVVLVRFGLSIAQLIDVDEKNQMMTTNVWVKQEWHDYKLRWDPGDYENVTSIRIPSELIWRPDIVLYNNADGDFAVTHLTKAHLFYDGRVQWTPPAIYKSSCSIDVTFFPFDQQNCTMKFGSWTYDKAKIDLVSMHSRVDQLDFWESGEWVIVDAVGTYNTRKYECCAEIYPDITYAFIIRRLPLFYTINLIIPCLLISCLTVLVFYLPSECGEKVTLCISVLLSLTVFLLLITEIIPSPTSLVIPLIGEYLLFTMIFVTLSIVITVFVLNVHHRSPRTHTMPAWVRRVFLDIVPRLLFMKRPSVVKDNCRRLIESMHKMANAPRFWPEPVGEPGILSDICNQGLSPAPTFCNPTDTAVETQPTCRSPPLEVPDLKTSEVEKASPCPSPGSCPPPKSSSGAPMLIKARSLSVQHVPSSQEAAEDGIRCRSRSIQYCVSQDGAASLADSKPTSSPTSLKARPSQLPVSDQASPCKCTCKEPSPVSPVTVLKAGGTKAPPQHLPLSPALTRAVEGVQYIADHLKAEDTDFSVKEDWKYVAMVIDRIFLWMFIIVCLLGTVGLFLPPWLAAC
T1 sequence (P12390 25-500): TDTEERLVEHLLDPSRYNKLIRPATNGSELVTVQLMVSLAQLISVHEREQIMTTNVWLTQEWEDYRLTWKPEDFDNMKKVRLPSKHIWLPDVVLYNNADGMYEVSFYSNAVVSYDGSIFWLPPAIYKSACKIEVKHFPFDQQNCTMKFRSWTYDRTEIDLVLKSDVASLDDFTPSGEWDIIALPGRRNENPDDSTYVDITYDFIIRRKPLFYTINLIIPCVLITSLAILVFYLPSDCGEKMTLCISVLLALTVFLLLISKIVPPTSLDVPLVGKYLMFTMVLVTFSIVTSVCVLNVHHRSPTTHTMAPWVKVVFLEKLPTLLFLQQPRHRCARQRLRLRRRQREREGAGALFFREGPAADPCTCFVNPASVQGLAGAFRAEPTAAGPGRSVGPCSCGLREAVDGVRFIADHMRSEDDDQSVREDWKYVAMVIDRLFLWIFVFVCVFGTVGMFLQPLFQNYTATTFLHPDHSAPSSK

**Q.** With `c1cncc(C2CC3CCC2NC3)c1` (stereo not drawn) [Example 1, Syn-6-(3-pyridyl)-2-azabicyclo[2. 2. 2]octane oxalate] as the compound, how does the “Inhibition of ^3H-Cytidine binding” value read?
**A.** Its value is 94%.

**Q.** For `c1ncc(C2CC3CCC2NC3)cn1` (stereo not drawn) [Example 16, Syn-6-(5-pyrimidinyl)-2-azabicyclo[2. 2. 2]octane], which “Inhibition of ^3H-Cytidine binding” value is on record?
**A.** The value was 93%.

**Q.** How did the “Inhibition of ^3H-Cytidine binding” value turn out when `Cc1cc(C2CC3CCC2NC3)on1` (stereo not drawn) [Example 18, Syn-6-(3-methyl-5-isoxazolyl)-2-azabicyclo[2. 2. 2]octane] was run?
**A.** Its value is 84%.

**Q.** For `C1=C(c2cnccn2)C2CCC1CN2` (stereo not drawn) [Example 23, 6-(2-Pyrazinyl)-2-azabicyclo[2. 2. 2]oct-5-ene], which “Inhibition of ^3H-Cytidine binding” value is on record?
**A.** The value was 39%.

**Q.** How did the “Inhibition of ^3H-Cytidine binding” value turn out when `Brc1cncc(C2=CC3CCC2CN3)c1` (stereo not drawn) [Example 24, 5-(5-Bromo-3-pyridyl)-2-azabicyclo[2. 2. 2]oct-5-ene] was run?
**A.** The value was 92%.

**Q.** For `C#Cc1cncc(C2CC3CCC2NC3)c1` (stereo not drawn) [Example 28, Syn-6-(5-ethynyl-3-pyridyl)-2-azabicyclo[2. 2. 2]octane], which “Inhibition of ^3H-Cytidine binding” value is on record?
**A.** The value was 91%.

**Q.** `c1ccc(-c2cncc(C3CC4CCC3NC4)c2)cc1` (stereo not drawn) [Example 29, Syn-6-(5-phenyl-3-pyridyl)-2-azabicyclo[2. 2. 2]octane] was tested. Which “Inhibition of ^3H-Cytidine binding” value did it give?
**A.** Its value is 86%.

**Q.** Which “Inhibition of ^3H-Cytidine binding” value does the source give for `c1cncc(C2CC3CC2CN3)c1` (stereo not drawn) [Example 30, Syn-5-(3-pyridyl)-2-azabicyclo[2. 2. 1]heptane] here?
**A.** Its value is 87%.

**Q.** Which “Inhibition of ^3H-Cytidine binding” value does the source give for `c1cncc(C2CC3CCCC2NC3)c1` (stereo not drawn) [Example 31, Syn-8-(3-pyridyl)-7-azabicyclo[3. 2. 2.]nonane] here?
**A.** Its value is 84%.
